The values below are quoted from earlier work in US20100239661A1, “PHARMACEUTICAL COMPOSITIONS OF URSODIOL” (priority 2006, published 2010).

Read-outs that look alike come from different tables or passages of the source.

Assay in data set [1]: not given
The source holds these as a separate data set.

The conditions of data set [2]: for oral absorption: following oral administration.
The conditions of data set [3]: unconjugated ursodiol, healthy subjects.

As for `C[C@H](CCC(=O)O)[C@H]1CC[C@H]2[C@@H]3[C@@H](O)C[C@@H]4C[C@H](O)CC[C@]4(C)[C@H]3CC[C@]12C` [Ursodiol, 3α,7β-dihydroxy-5β-cholan-24-oic acid], the “solubility (characterisation)” value is recorded as “low solubility”. Besides, the solubility result in data set [1] (in chloroform) is “slightly soluble”. Also, the solubility result in data set [1] (in ethanol) is recorded as “freely soluble”. For the same compound, in data set [1] (in ether), the solubility entry is on record as “sparingly soluble”. The solubility entry in data set [1] (in glacial acetic acid) is reported as “freely soluble”. In addition, in data set [1] (in water), the solubility result was “practically insoluble”. In data set [2] (chronic dose of 13 to 15 mg/kg/day), the “share of biliary and plasma bile acids” value is on record as 30-50%. Also, in data set [2], the oral absorption entry was “rapid and complete”. For the same compound, the oral absorption result in data set [2] (listed as ursodiol) is reported as “incomplete”. In data set [2] (once absorbed, in the absence of liver disease), the hepatic extraction entry is listed as “about 50%”. In addition, the urinary excretion entry in data set [2] (with treatment, except in severe cholestatic liver disease) is listed as “less than 1%”. In data set [3], the “bound to plasma protein” value is “at least 70%”.
